Source: patent US10364247B2, “Preparation and use of novel protein kinase inhibitors” (Ruijin Hospital Affiliated to Shanghai Jiao Tong University …, priority 2015, dated 2019)

How the values were obtained:
[1] = target: ABL1(F317L)-nonphosphorylated (Homo sapiens, UniProt P00519, F317L); assay: KINOMEscan competition binding; conditions: read-out: Percent Control
Description: (§1) KINOMEscan™ is based on a competition binding assay that quantitatively measures the ability of a compound to compete with an immobilized, active-site directed ligand (Fabian et al. (2005) Nat. Biotechnol. 23, 329; Karaman et al. (2008) Nat. Biotechnol. 26, 127). The compound was screened at 10 μM, and results for primary screen binding interactions are reported as ‘% Ctrl’, where lower numbers indicate stronger hits. The results for kinases targets with a % Ctrl less than 30 can be seen in Table 2.

CDC2L2 = target: T1, CDC2L2 (Homo sapiens, UniProt Q9UQ88); assay: KINOMEscan competition binding; conditions: read-out: Percent Control
T1 construct: purchased KINOMEscan (screening platform)
Description: as §1

CTK = CTK (Homo sapiens, UniProt P42679); assay: KINOMEscan competition binding; conditions: CTK (Entrez MATK), read-out: Percent Control
Description: as §1

EGFR(G719S) = EGFR(G719S) (Homo sapiens, UniProt P00533, G719S); assay: KINOMEscan competition binding; conditions: read-out: Percent Control
Description: as §1

[2] = target: EGFR(L747-E749del, A750P) (Homo sapiens, UniProt P00533, A750P/DEL747-749); assay: KINOMEscan competition binding; conditions: read-out: Percent Control
Description: as §1

EGFR(L858R) = target: T2, EGFR(L858R) (Homo sapiens, UniProt P00533, L858R); assay: KINOMEscan competition binding; conditions: read-out: Percent Control
T2 construct: purchased KINOMEscan (panel service)
T2 sequence (P00533 25-1210 L858R): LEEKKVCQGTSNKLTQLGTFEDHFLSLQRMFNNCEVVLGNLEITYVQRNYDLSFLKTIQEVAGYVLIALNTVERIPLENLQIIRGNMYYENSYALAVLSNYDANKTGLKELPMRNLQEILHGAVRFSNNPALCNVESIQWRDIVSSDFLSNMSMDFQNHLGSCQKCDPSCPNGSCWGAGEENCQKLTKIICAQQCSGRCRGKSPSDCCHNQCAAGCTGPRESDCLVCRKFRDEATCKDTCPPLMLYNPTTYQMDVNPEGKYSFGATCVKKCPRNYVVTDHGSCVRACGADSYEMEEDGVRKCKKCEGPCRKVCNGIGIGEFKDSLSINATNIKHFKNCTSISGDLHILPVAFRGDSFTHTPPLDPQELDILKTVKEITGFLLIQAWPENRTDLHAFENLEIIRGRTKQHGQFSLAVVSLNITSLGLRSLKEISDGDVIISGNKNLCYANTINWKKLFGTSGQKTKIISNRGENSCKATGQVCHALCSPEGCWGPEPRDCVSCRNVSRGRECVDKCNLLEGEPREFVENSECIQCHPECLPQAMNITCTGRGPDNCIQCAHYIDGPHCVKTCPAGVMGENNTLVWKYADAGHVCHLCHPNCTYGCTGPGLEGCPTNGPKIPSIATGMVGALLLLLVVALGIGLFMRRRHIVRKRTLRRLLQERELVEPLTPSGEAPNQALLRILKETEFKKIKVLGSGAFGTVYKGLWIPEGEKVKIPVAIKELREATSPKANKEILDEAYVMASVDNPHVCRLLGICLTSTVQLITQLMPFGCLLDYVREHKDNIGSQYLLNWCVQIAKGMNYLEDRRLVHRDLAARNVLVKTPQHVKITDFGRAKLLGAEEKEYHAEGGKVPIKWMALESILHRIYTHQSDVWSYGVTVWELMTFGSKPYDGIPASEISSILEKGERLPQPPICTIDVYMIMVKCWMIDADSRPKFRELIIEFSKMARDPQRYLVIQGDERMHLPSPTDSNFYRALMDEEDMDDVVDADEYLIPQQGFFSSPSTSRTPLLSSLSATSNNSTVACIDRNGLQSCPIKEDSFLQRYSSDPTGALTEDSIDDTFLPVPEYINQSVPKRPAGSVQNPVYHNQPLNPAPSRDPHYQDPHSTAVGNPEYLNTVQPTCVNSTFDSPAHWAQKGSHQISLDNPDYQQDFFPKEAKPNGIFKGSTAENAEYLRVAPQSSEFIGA
Description: as §1

EPHB3 = EPHB3 (Homo sapiens, UniProt P54753); assay: KINOMEscan competition binding; conditions: read-out: Percent Control
EPHB3, sequence (P54753 34-998): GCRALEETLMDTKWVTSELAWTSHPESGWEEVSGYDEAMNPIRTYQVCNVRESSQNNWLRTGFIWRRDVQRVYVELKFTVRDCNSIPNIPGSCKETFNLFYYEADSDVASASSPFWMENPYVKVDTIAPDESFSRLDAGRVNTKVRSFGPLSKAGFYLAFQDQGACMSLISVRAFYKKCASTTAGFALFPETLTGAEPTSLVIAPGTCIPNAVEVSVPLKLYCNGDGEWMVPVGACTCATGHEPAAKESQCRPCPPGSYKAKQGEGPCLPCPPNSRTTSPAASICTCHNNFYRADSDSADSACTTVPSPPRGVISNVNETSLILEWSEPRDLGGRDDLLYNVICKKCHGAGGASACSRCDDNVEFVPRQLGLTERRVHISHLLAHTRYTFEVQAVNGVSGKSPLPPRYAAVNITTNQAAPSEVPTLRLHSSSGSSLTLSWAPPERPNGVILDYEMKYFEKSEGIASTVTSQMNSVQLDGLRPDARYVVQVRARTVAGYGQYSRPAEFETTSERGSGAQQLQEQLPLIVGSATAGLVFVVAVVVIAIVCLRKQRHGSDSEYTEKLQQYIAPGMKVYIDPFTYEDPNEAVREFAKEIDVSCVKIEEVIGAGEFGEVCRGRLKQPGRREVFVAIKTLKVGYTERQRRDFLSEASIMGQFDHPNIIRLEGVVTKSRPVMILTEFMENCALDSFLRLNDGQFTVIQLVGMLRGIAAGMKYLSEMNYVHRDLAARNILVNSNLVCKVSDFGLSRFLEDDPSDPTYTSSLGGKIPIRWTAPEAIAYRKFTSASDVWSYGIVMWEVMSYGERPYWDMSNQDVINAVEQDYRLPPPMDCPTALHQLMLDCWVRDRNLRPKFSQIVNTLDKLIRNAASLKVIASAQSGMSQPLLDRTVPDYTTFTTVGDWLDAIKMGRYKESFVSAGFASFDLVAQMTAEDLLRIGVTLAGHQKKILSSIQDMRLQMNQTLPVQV
Description: as §1

IKK-alpha = IKK-alpha (Homo sapiens, UniProt O15111); assay: KINOMEscan competition binding; conditions: IKK-alpha (Entrez CHUK), read-out: Percent Control
IKK-alpha, sequence (O15111 whole entry): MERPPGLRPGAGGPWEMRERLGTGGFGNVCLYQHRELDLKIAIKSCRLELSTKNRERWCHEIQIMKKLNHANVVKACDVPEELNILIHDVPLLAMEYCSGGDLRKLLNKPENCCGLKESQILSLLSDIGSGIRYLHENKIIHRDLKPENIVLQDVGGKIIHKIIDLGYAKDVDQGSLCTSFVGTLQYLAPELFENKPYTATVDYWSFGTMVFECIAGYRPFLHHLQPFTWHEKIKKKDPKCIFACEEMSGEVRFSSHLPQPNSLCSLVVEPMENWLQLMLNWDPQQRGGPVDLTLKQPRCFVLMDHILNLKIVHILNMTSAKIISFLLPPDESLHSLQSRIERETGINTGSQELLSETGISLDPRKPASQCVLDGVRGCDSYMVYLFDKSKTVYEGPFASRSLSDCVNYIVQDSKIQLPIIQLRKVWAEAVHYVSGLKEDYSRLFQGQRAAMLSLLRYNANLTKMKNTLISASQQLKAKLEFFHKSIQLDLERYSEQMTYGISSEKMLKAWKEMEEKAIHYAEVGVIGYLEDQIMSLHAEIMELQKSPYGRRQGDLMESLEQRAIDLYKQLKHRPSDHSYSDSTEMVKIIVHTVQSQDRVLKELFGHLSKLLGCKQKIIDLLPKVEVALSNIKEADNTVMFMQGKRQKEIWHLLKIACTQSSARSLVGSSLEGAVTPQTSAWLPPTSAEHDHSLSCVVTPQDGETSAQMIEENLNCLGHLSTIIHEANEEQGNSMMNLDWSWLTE
Description: as §1

[3] = target: T3, JAK3(JH1domain-catalytic) (Homo sapiens, UniProt P52333); assay: KINOMEscan competition binding; conditions: read-out: Percent Control
T3 construct: JAK3(JH1domain-catalytic)
Description: as §1

KIT(D816V) = target: T4, KIT(D816V) (Homo sapiens, UniProt P10721, D816V); assay: KINOMEscan competition binding; conditions: read-out: Percent Control
T4 construct: purchased KINOMEscan (panel service)
Description: as §1

KIT(V559D, V654A) = KIT(V559D, V654A) (Homo sapiens, UniProt P10721, V559D/V654A); assay: KINOMEscan competition binding; conditions: read-out: Percent Control
Description: as §1

LOK = LOK (Homo sapiens, UniProt O94804); assay: KINOMEscan competition binding; conditions: LOK (Entrez STK10), read-out: Percent Control
Description: as §1

MLK3 = MLK3 (Homo sapiens, UniProt Q16584); assay: KINOMEscan competition binding; conditions: MLK3 (Entrez MAP3K11), read-out: Percent Control
Description: as §1

NEK4 = target: T5, NEK4 (Homo sapiens, UniProt P51957); assay: KINOMEscan competition binding; conditions: read-out: Percent Control
T5 construct: purchased KINOMEscan (screening platform)
Description: as §1

PDGFRA = PDGFRA (Homo sapiens, UniProt P16234); assay: KINOMEscan competition binding; conditions: read-out: Percent Control
Description: as §1

PDGFRB = PDGFRB (Homo sapiens, UniProt P09619); assay: KINOMEscan competition binding; conditions: read-out: Percent Control
PDGFRB, sequence (P09619 33-1106): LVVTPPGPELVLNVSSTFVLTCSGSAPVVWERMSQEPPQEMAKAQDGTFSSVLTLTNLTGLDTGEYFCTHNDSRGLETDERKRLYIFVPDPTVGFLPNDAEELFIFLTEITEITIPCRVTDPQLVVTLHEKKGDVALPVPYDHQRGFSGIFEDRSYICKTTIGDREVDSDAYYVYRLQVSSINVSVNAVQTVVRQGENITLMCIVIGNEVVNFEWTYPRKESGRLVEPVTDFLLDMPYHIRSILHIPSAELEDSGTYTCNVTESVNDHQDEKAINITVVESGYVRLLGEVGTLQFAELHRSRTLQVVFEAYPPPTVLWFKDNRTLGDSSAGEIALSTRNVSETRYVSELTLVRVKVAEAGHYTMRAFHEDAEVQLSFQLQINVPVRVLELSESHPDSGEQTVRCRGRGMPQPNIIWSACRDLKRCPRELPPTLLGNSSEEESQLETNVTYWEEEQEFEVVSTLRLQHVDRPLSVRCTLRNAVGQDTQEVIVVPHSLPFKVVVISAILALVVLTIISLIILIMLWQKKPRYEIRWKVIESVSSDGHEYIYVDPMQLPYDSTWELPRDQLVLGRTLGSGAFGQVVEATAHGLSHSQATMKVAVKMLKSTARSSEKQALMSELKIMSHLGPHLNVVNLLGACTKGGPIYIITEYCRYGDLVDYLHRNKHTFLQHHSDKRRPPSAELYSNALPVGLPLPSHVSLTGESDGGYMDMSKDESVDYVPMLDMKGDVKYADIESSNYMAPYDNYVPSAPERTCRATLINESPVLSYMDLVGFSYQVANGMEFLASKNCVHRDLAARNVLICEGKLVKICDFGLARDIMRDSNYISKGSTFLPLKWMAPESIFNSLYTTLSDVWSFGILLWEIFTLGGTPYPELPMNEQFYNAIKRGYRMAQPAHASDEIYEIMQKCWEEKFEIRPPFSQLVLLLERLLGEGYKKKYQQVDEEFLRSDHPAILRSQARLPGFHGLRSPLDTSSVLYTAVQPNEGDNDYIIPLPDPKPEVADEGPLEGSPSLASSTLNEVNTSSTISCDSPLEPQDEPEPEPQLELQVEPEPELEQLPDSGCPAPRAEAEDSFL
Description: as §1

RET(M918T) = RET(M918T) (Homo sapiens, UniProt P07949, M918T); assay: KINOMEscan competition binding; conditions: read-out: Percent Control
RET(M918T), sequence (P07949 29-1114 M918T): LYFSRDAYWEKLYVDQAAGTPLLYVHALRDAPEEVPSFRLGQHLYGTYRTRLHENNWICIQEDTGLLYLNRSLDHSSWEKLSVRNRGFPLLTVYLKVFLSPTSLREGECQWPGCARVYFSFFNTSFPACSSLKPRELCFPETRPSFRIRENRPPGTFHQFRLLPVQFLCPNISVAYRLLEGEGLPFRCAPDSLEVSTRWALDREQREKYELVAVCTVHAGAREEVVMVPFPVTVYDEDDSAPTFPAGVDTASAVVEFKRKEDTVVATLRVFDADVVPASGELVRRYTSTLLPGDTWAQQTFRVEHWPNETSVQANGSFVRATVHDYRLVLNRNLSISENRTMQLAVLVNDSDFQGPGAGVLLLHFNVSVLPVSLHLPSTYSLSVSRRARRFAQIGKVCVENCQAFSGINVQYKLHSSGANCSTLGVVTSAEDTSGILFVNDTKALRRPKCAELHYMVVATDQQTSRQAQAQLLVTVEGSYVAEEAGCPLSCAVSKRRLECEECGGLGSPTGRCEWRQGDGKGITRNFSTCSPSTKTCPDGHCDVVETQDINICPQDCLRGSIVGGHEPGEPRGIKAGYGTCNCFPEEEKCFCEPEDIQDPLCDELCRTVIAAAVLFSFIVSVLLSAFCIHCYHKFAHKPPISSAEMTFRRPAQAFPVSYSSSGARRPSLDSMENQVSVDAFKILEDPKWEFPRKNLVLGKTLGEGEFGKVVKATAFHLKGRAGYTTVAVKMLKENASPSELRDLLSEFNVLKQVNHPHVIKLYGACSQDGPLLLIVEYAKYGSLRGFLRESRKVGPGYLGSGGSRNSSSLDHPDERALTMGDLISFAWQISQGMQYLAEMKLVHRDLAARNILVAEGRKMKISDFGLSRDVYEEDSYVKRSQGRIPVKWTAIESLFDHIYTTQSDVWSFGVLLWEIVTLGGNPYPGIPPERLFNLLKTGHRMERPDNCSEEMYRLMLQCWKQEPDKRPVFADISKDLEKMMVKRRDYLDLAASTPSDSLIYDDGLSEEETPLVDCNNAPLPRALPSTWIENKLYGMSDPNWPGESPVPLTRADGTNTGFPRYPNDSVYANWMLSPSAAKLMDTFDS
Description: as §1

TNK2 = TNK2 (Homo sapiens, UniProt Q07912); assay: KINOMEscan competition binding; conditions: read-out: Percent Control
Description: as §1

Wt-BaF3 = assay: Parental Ba/F3 cell proliferation (CellTiter Glo); assay type: cell-based, murine; conditions: Mus musculus, parental BaF/3 cells, 48 hours
Summary of the method: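 Untransformed murine Ba/F3 cells, kept on 15% WEHI conditioned medium as IL3 source, were seeded at 5000 cells/well with compound. Viability was read by luminescence using CellTiter Glo diluted 1:4 in PBS, with no-cell background and vehicle controls.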

KU812 cells = assay: Human leukemia cell proliferation (CellTiter Glo); assay type: cell-based; conditions: compared to Imatinib and Ponatinib; FIG. 1
Description: Comparison of 50% inhibition concentration (IC50) of IA-9, imatinib and Ponatinib in KU812 leukemia cells.
IA-9 is a strong kinase inhibitor among the compounds of the invention. The activity of IA-9 to inhibit human leukemia cell proliferation was tested using CellTiter Glo Assay (Promega).

[4] = test system: SK-MEL-5, SK-MEL-28, and SK-MEL-30 cell lines; assay: Melanoma cell proliferation; assay type: cell-based; conditions: SK-MEL-5, SK-MEL-28 (B-Raf V600E), SK-MEL-30 (N-Ras Q61K); FIG. 3
Description: The ability of IA-9 to treat melanoma was tested using the SK-MEL-5, SK-MEL-28, and SK-MEL-30 cell lines. SK-MEL-5 and SK-MEL-28 express mutant B-Raf (V600E) and wildtype N-Ras. SK-MEL-30 expresses wildtype B-Raf and mutant N-Ras (Q61K). Cell proliferation was tested using methods described herein.

[5] = test system: Ba/F3 cells expressing FLT3-ITD oncoprotein (ITD); assay: Proliferation of FLT3-ITD expressing Ba/F3 cells; assay type: cell-based, murine
Description: A. Dose response curve of IA-9 in treating ITD cells is presented. ITD cells in the presence (ITD+) or absence of IL-3 (ITD−) were treated with 10 μM and 3-fold dilution series of IA-9. B. Dose response curve of IA-9 in treating MV-4-11 cells is shown. […].

Compound Cc1ccc(Nc2ncc3c(n2)N(C)CN(c2cc(NC(=O)c4cccc(C(F)(F)F)c4)ccc2C)C3)cn1 [IA-9, N-(4-methyl-3-(1-methyl-7-((6-methylpyridin-3-yl)amino)-1,4-dihydropyrimido[4,5-d]pyrimidin-3(2H)-yl)phenyl)-3-(trifluoromethyl)benzamide] has a remaining binding at 10 µM [1] of 0%, a remaining binding at 10 µM (CDC2L2) of 28% and a remaining binding at 10 µM (CTK) of 3.4%. The remaining binding at 10 µM (EGFR(G719S)) was 0%, the remaining binding at 10 µM [2] was 0% and the remaining binding at 10 µM (EGFR(L858R)) was 0.05%. For the same compound, the remaining binding at 10 µM (EPHB3) was 0%, the remaining binding at 10 µM (IKK-alpha) was 1% and the remaining binding at 10 µM [3] was 5%. For the same compound, the remaining binding at 10 µM (KIT(D816V)) was 0.05%, the remaining binding at 10 µM (KIT(V559D, V654A)) was 0.35% and the remaining binding at 10 µM (LOK) was 0%. The remaining binding at 10 µM (MLK3) was 5.8%, the remaining binding at 10 µM (NEK4) was 30% and the remaining binding at 10 µM (PDGFRA) was 1.6%. For the same compound, the remaining binding at 10 µM (PDGFRB) was 0%, the remaining binding at 10 µM (RET(M918T)) was 0% and the remaining binding at 10 µM (TNK2) was 2.4%. The IC50 (Wt-BaF3) was 5.38 µM, the “inhibition of proliferation of KU812 cells” value (KU812 cells) was “stronger ability to inhibit proliferation of KU812 cells” and the “reduction of proliferation of melanoma cells” value [4] was “reduce the proliferation of melanoma cells”. For the same compound, the “potential therapeutic window (ITD cells with vs without IL-3)” value ([5]; FLT3-ITD transformed cells, IL-3 rescue) was 80 fold, the “inhibition of proliferation/viability of ITD cells” value ([5]; absence of IL-3, FIG. 5A) was “effectively inhibits the proliferation/viability of ITD cells” and the “proliferation/survival of ITD cells on addition of IL-3” value ([5]; presence of IL-3, FIG. 5A) was “largely rescues the proliferation/survival of the ITD cells”.
